From patent US20230190689A1, “METHODS AND COMPOSITIONS FOR INDUCING BROWN ADIPOGENESIS” (ENERGESIS PHARMACEUTICALS, INC., priority 2020, published 2023)
Where a name gives a salt, the structure may show the parent alone.

Columns and labels:
[1] = tested on: CD34+ brown adipocyte progenitor cells; experiment: Multiplexed TaqMan real-time PCR of UCP1 and PPARγ2 mRNA (normalized to cyclophilin A) to quantify differentiation of CD34+ cells into brown adipocytes; assay type: cell-based, human; conditions: in vitro; first screen at 10 μM, actives retested at 1 nM to 50 μM
Source text: A robust method, previously disclosed, was used for detection of CD34+ cell differentiation into brown adipocytes by simultaneously quantifying mRNA species corresponding to the brown adipocyte marker UCP1, the adipocyte marker PPARγ2, and the “housekeeping” gene cyclophilin A which was used as the internal control.
This method permits analysis of a large number of samples to identify agents that enhance the differentiation of CD34+ cells into brown adipocytes. When differentiated into brown adipocytes, CD34+ cells express much higher levels of UCP1 and PPARγ2 mRNA for a given level of cyclophilin A. UCP1 and PPARγ2 mRNA levels normalized to cyclophilin A mRNA levels give an indication of the level of differentiation of the CD34+ cells into brown adipocytes, independent of the total number of cells in the sample.
Quantification of UCP1, PPARγ2 and cyclophilin A mRNA by multiplexed TaqMan real-time PCR was thus used to quantify differentiation of the CD34+ cells into brown adipocytes.
UCP1 is the key protein in brown adipocytes responsible for uncoupled respiration and is also highly specific for brown adipocyte differentiation. It is expressed exclusively by fully differentiated brown adipocytes and not by the CD34+ progenitor cells. We used a real-time semi-quantitative RT PCR-based assay for detection of UCP1 expression, in order to screen for brown adipocyte recruiters. […] The assay has the added advantage of allowing light microscopic visualization of the distinct morphological changes accompanying differentiation into brown adipocytes. This serves as further confirmation of differentiation.
(§1) Cells were seeded at 10,000 per cm^2 (48-well tissue culture, Chemglass #CLS-3500-048), cultured until confluency (1-4 days) at 37° C. in Endothelial cell growth medium-2 (EGM2) (BulletKit growth medium, Lonza #CC-3162) and until differentiation (6-12 more days). After 1-4 days in EGM2 media the cells were incubated with test agents (or positive controls) for 2-3 days (from day −3 or −2 to day 0). Rosiglitazone (1 μM) and rhBMP7 (6.3 nM) were used as reference agents (positive controls). Then (on day 0) the culture media (containing the test agents or positive controls) was removed, and minimal adipogenic medium (MDM) was added and the cells were left to differentiate of 6-12 days. The MDM media is a modification of the adipogenic media described by Rodriguez et al., and contains: DMEM/Ham's F-12 50/50 Mix (3.151 g/1, 17.5 mM D-glucose, 3.651 g/l L-glutamine) (Cellgro #10-090-CV), 5 μg/ml (0.86 μM) insulin, 1 μM dexamethasone, 100 μM 3-isobutyl-1-methylxanthine, 0.2 nM 3,3′,5-triiodo-L-thyronine, 10 μg/ml (127 nM) transferrin, and 1% penicillin-streptomycin. Adipocyte scores were determined by light microscopy and defined as the number of cells, on a per well basis, that contain multilocular lipid droplets, at the end of the differentiation of the cells, approximately 6 to 12 days following the end of compound treatment and switch into MDM media.
Total RNA was prepared from cells using PureLink RNA Isolation Kit (Invitrogen #12183-016). Alternatively, cells were simply lyzed by freezing (−80° C.). First strand cDNA were synthesized using the High Capacity cDNA Reverse Transcription kit (Applied Biosystems, Foster City, Calif.) and random primers.
Quantitative real-time PCR was performed using an Applied Biosystems StepOnePlus™ instrument, TaqMan Gene Expression Master Mix (Applied Biosystems #4369016), and custom TaqMan gene expression probes and primers for human uncoupling protein-1 “UCP1” (GenBank NM_021833) and for human peptidylprolyl isomerase A “cyclophilin A” (GenBank NM_021130).
Cyclophilin A was used as a control to account for any variations due to the efficiency of reverse transcription. Arbitrary units were determined by normalizing target mRNA levels to cyclophilin A mRNA levels (based on Cts).

CD34+ cells [2] = experiment: Quantification of UCP1 protein by fluorescence immunohistochemistry (IHC); assay type: cell-based, human
Procedure: Culturing and differentiation of CD34+ cells into brown adipocytes were performed using adipogenic differentiation medium lacking (Minimal Differentiation Medium, MDM) or containing 1 μM rosiglitazone (Reference Differentiation Medium, RDM). After 15 days of differentiation cells were fixed with 4% Paraformaldehyde PBS pH 7.4, and incubated with a UCP1 antibody (Abcam ab23841) and Alexafluor 488 goat anti-rabbit antibody to quantify relative UCP1 levels (green) according to standard protocols. Prior to fixation of cells, nuclei were labeled with 5 μM DAPI (blue) for 10 minutes. Each treatment condition was evaluated in triplicate in a 96-well plate corresponding to approximately 360-480 cells for each data point in total. The InCell 1000 Developer Toolbox software was used to develop an automated cell detection script to measure UCP1 signal intensity, using the nuclei and cytoplasm detection algorithms. As a readout, total intensity of UCP1 signal within the cell was used, normalized to cell number.

CD34+ cells [3] = experiment: Light microscopy of CD34+ cells for brown adipocyte differentiation (multilocular lipid-containing cells); assay type: cell-based, human; conditions: CD34+ cells 6 days following the end of compound treatment and switch into MDM media
Procedure: as §1
Pictures of cells were taken using a hand-held digital camera (Nikon Coolpix 950) and inverted microscope (Nikon TMS) used for cell culture observations; images were optimized using Paint.net version 4.0 functions for Auto-Level Brightness and Contrast.

DIO mice = experiment: DIO mouse study of metabolic health, once-daily oral gavage for 28 to 56 days; assay type: in vivo, C57Bl/6 mice; conditions: oral gavage once a day, bezafibrate 60 mg/kg, oxaprozin 50 mg/kg, vs vehicle
Procedure: Obesity and insulin resistance, an early stage in the development of type 2 diabetes (or pre-diabetes), was induced in C57Bl/6 mice by feeding the mice with a high fat diet (Research diet, Cat #D12492, 60/a fat kcal) for 12 weeks starting at 6 weeks of age. The mice were maintained at 22-23° C. with abundant bedding material, maintaining the animals in an environmental temperature close to their thermoneutrality, starting 2 weeks prior to the dosing period and for the full dosing period with a 12 h/12 h light/dark cycle.
Mice were dosed once per day by oral gavage (200 μl per mouse), first for 3 days with the vehicle (PBS+0.5% CMC+0.1% Tween-80) as acclimation for running into the study, then with either vehicle alone or testing material dissolved in the vehicle for […] (4 to 8 weeks).
Body weight was recorded every 3 days, body composition (fat and lean mass with EchoMRI) was assessed at the end of the study (University of Cincinnati Mouse Metabolic Phenotyping Center), blood glucose level (measured with a glucometer) was monitored 3-5 days before (baseline) and at the end of the dosing period.
At the end of the dosing period, animals were fasted for 6 hours and euthanized by CO2, blood was collected, and plasma was isolated and saved at −20° C. Plasma glucose, insulin and leptin levels were assessed 3-5 days before (baseline) and at the end of the dosing period (mice were fasted for 6 hours before all plasma collection) (University of Cincinnati Mouse Metabolic Phenotyping Center). Insulin sensitivity was determined using the homeostasis model assessment of insulin resistance (HOMA-IR). HOMA-IR=(plasma insulin [microIU/ml] x plasma glucose [mM])/22.5.
The mice were maintained on a high fat diet (60% calories from fat) throughout the study. An overnight fast was performed the last night of the study in preparation for glucose tolerance testing.

SMILES | differentiation of brown adipocyte progenitor cells into brown adipocytes, as indicated by expression of UCP1 and PPARγ2 [1] | agents identified by quantification of UCP1 protein by fluorescence IHC (CD34+ cells [2]) | also measured
COc1ccc2c(c1)c(CC(=O)OCC(=O)O)c(C)n2C(=O)c1ccc(Cl)cc1 [Acemethacin] | promote the differentiation of brown adipocyte progenitor cells into brown adipocytes | – | –
COc1cc2c(c(OC)c1OC)-c1ccc(OC)c(=O)cc1[C@@H](NC(C)=O)CC2 [Colchicine] | – | identified using this technique | –
O=C(O)Cc1ccccc1Nc1c(Cl)cccc1Cl [Diclofenac] | promote the differentiation of brown adipocyte progenitor cells into brown adipocytes | – | –
NC(N)=Nc1nc(CSCCC(N)=NS(N)(=O)=O)cs1 [Famotidine] | – | identified using this technique | –
CCC1=C(C)CN(C(=O)NCCc2ccc(S(=O)(=O)NC(=O)N[C@H]3CC[C@H](C)CC3)cc2)C1=O [Glimepiride] | promote the differentiation of brown adipocyte progenitor cells into brown adipocytes | – | –
N=C(N)NC(=O)Cc1c(Cl)cccc1Cl [Guanfacine hydrochloride] | – | identified using this technique | –
COc1ccc2c(c1)c(CC(=O)O)c(C)n2C(=O)c1ccc(Cl)cc1 [Indomethacin] | promote the differentiation of brown adipocyte progenitor cells into brown adipocytes | – | –
Cc1ccc(Cl)c(Nc2ccccc2C(=O)O)c1Cl [Meclofenamate] | promote the differentiation of brown adipocyte progenitor cells into brown adipocytes | – | –
Cc1cccc(Nc2ccccc2C(=O)O)c1C [Mefenamic acid] | promote the differentiation of brown adipocyte progenitor cells into brown adipocytes | – | –
CN(C)C(=N)N=C(N)N [Metformin] | – | identified using this technique | –
O=C(O)c1cccnc1Nc1cccc(C(F)(F)F)c1 [Niflumic acid] | promote the differentiation of brown adipocyte progenitor cells into brown adipocytes | – | –
COC(=O)[C@H]1[C@H]2C[C@@H]3c4[nH]c5cc(OC)ccc5c4CCN3C[C@H]2C[C@@H](OC(=O)c2cc(OC)c(OC)c(OC)c2)[C@@H]1OC [Reserpine] | – | identified using this technique | –
O=C(CCCN1CCC2(CC1)C(=O)NCN2c1ccccc1)c1ccc(F)cc1 [Spiperone] | – | identified using this technique | –
CCOC(=O)Oc1c(OC)cc(C(=O)O[C@@H]2C[C@@H]3CN4CCc5c([nH]c6cc(OC)ccc56)[C@H]4C[C@@H]3[C@H](C(=O)OC)[C@H]2OC)cc1OC [Syrosingopine] | – | identified using this technique | –
CCSc1ccc2c(c1)N(CCCN1CCN(C)CC1)c1ccccc1S2 [Thiethylperazine] | – | identified using this technique | –
CCN(CC)CCNC(=O)c1cc(S(C)(=O)=O)ccc1OC [Tiapride hydrochloride] | – | identified using this technique | –
CCCCC[C@H](O)/C=C/[C@H]1[C@H](O)CC(=O)[C@@H]1CCCCCCC(=O)O [alprostadil, Alprostadil] | promote the differentiation of brown adipocyte progenitor cells into brown adipocytes | – | brown adipocyte formation by light microscopy (CD34+ cells [3]): promote brown adipocyte formation
COc1ccc2c(c1)C(=O)N(CCc1ccc(S(=O)(=O)NC(=O)NC3CCCCC3)cc1)C(=O)C2(C)C [gliquidone, Gliquidone] | promote the differentiation of brown adipocyte progenitor cells into brown adipocytes | – | brown adipocyte formation by light microscopy (CD34+ cells [3]): promote brown adipocyte formation
O=C(O)CCc1nc(-c2ccccc2)c(-c2ccccc2)o1 [oxaprozin, 3-(4,5-Diphenyloxazol-2-yl)propionic acid] | promote the differentiation of brown adipocyte progenitor cells into brown adipocytes | – | body fat mass (DIO mice; MRI): significant decreases; body weight (DIO mice): significant decreases; glycemia (DIO mice): significant decreases; plasma insulin (DIO mice): significant decreases; plasma leptin (DIO mice): significant decreases
O=C(O)/C=C/c1ccc(Cn2ccnc2)cc1 [ozagrel, (2E)−3-{4-[(1H-imidazol-1-yl)methyl]phenyl}prop-2-enoic acid] | promote the differentiation of brown adipocyte progenitor cells into brown adipocytes | – | brown adipocyte formation by light microscopy (CD34+ cells [3]): promote brown adipocyte formation
CN1c2ccccc2C(NCCCCCCC(=O)O)c2ccc(Cl)cc2S1(=O)=O (centres unmarked) [tianeptine, Tianeptine] | promote the differentiation of brown adipocyte progenitor cells into brown adipocytes | – | brown adipocyte formation by light microscopy (CD34+ cells [3]): promote brown adipocyte formation
CC(C(=O)O)c1ccc2c(c1)CC(=O)c1ccccc1S2 (centres unmarked) [zaltoprofen, 2-(6-Oxo-5H-benzo[b][1]benzothiepin-3-yl)propanoic acid] | promote the differentiation of brown adipocyte progenitor cells into brown adipocytes | – | brown adipocyte formation by light microscopy (CD34+ cells [3]): promote brown adipocyte formation
